# Data published in patent publication US8853258B2, “C-linked hydroxamic acid derivatives useful as antibacterial agents” (Pfizer Inc., priority 2009, dated 2014).
# Where two headings read alike, the source gives them in different places.
# Legend:
# [1] = molecular target: Pseudomonas aeruginosa LpxC enzyme (Pseudomonas aeruginosa (strain ATCC 15692 / DSM 22644 / CIP 104116 / JCM 14847 / LMG 12228 / 1C / PRS 101 / PAO1), UniProt P47205); experiment: IC50 Assay, LpxC Enzyme from P. aeruginosa (PA LpxC Enzyme IC50); type: biochemical
# Method: In order to assess the compounds biological activity, selected in-vitro assays were conducted on selected compounds. One of the assays measured the compounds ability to disrupt the synthesis of lipopolysaccharide, LPS, which is a component of the outer membrane of Gram-negative bacteria. Disruption of this synthesis is lethal to the bacteria. The assay determined the compound's ability to inhibit LpxC, which is the first enzyme in the biosynthetic pathway for LPS (measured as IC50). Additionally, MICs (minimal inhibitory concentrations) were determined for several bacteria. The specific protocols are described below:
# A) IC50 Assay, LpxC Enzyme from P. aeruginosa (Labled as PA LpxC Enzyme IC50
# At the end of 1 hour, 5 ul of 1N HCl was added to stop the enzyme reaction; the plates were centrifuged, and then processed with the BioTrove Rapidfire HTMS Mass Spectrometry System. A no-enzyme control was used in calculating the IC50 values from the percent conversion values.
# [2] = test system: Escherichia coli EC-1: VOGEL, mouse virulent; experiment: MIC determination (CLSI), EC-1; type: cell-based; settings: for MIC: Escherichia coli
# Method in brief: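 E. coli Vogel, a mouse-virulent strain (EC-1), was tested. MICs were set by dilution susceptibility testing per CLSI standards M7-A7/M100-S18.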
# [3] = test system: Klebsiella pneumoniae: Ciprofloxacin-resistant isolate, ESBL, clinical isolate (KP-3700); experiment: MIC determination (CLSI), KP-3700; type: cell-based
# Method in brief: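 Strain KP-3700, a clinical isolate producing extended-spectrum β-lactamases and resistant to ciprofloxacin, was tested. Minimum inhibitory concentrations determined via CLSI dilution methodology (M7-A7; M100-S18).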
# [4] = test system: Pseudomonas aeruginosa UI-18: Wild-type (PA-7); experiment: MIC determination (CLSI), PA-7; type: cell-based; settings: for MIC: Pseudomonas aeruginosa
# Method in brief: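 Wild-type P. aeruginosa UI-18 tested for minimum inhibitory concentration. Broth/agar dilution following CLSI standards (M7-A7, M100-S18).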
# [5] = test system: Acinetobacter baumanii/haemolyticus: Multidrug-resistant clinical isolate (AB-3167); experiment: MIC determination (CLSI), AB-3167; type: cell-based; settings: for MIC: Acinetobacter baumannii
# Method in brief: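 Multidrug-resistant clinical isolate AB-3167 (A. baumannii/haemolyticus) tested for minimum inhibitory concentration following CLSI dilution susceptibility standards M7-A7 and M100-S18.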
# [6] = Table 3, read-out: PA LpxC enzyeme IC^50
# [7] = P. aeruginosa LpxC enzyme, read-out: PA LpxC enzyeme IC50
# [8] = Escherichia coli EC-1 VOGEL, mouse virulent
# [9] = Pseudomonas aeruginosa UI-18 wild-type PA-7
# [10] = Acinetobacter baumanii/haemolyticus multidrug-resistant clinical isolate AB-3167
# [11] = Pseudomonas aeruginosa UI-18 (PA-7)
# [12] = Acinetobacter baumanii/haemolyticus AB-3167
# [13] = Table 1, read-out: PA LpxC enzyeme IC50
# [14] = Table 1, MIC, read-out: PA-7 (MIC)
# [15] = Table 1, MIC, read-out: AB-3167 (MIC)
SMILES,KP-3700 MIC [3],"IC50 [1, 7]","EC-1 MIC [2, 8]","PA-7 MIC [4, 9]","AB-3167 MIC [5, 10]",other results
"CC(C)CCOc1ccc(CCC(C)(C(=O)NO)S(C)(=O)=O)cc1 (stereo not drawn) [Example 292, N-hydroxy-2-methyl-4-[4-(3-methylbutoxy)phenyl]-2-(methylsulfonyl)butanamide]",≧64 mg/L,–,–,–,–,"IC50 [1, 6]: 1.11 nM; MIC ([2]; read-out: EC-1 MIC): 16 µg/mL; MIC ([4]; Table 3, read-out: PA-7 MIC): 8 µg/mL; MIC ([5]; Table 3, read-out: AB-3167 MIC): 16 µg/mL"
CC(=O)c1ccc(-c2ccc(CCC(C)(C(=O)NO)S(C)(=O)=O)cn2)cc1 (stereo not drawn) [Example 133],≧64 mg/L,0.985 nM,16 µg/mL,16 µg/mL,≧64 mg/L,–
C[C@@](CCc1ccc(-c2ccc(NS(C)(=O)=O)cc2)cc1)(C(=O)NO)S(C)(=O)=O [Example 210],16 µg/mL,0.706 nM,–,–,–,"EC-1 MIC ([2]; Escherichia coli EC-1): 4 µg/mL; PA-7 MIC [4, 11]: 2 µg/mL; AB-3167 MIC [5, 12]: ≧64 mg/L"
"CC(=O)NC[C@@H]1CN(c2ccc(-c3ccc(CC[C@](C)(C(=O)NO)S(C)(=O)=O)cc3)c(F)c2)C(=O)O1 [Example 14, (2R)-4-{4′-[(5R)-5-(Acetamidomethyl)-2-oxo-1,3-oxazolidin-3-yl]-2′-fluorobiphenyl-4-yl}-N-hydroxy-2-methyl-2-(methylsulfonyl)butanamide]",≧64 mg/L,–,–,–,–,"IC50 [1, 13]: 1.48 nM; MIC ([2]; read-out: EC-1: (MIC)): 16 µg/mL; MIC [4, 14]: 32 µg/mL; MIC [5, 15]: ≥ 64 µg/mL"
CC(O)C(=O)c1ccc(-c2ccc(CCC(C)(C(=O)NO)S(C)(=O)=O)cc2)cc1 (stereo not drawn) [Example 194],4 µg/mL,0.195 nM,1 µg/mL,1 µg/mL,≧64 mg/L,–
CC(=O)c1ccc(-c2ccc(CCC(C)(C(=O)NO)S(C)(=O)=O)cc2)cc1F (stereo not drawn) [Example 184],2 µg/mL,0.155 nM,4 µg/mL,0.5 µg/mL,32 µg/mL,–
C[C@@](CCc1ccc(-c2cc3ccccc3[nH]2)cc1)(C(=O)NO)S(C)(=O)=O [Example 218],2 µg/mL,0.034 nM,–,–,–,"EC-1 MIC ([2]; Escherichia coli EC-1): 0.5 µg/mL; PA-7 MIC [4, 11]: 0.5 µg/mL; AB-3167 MIC [5, 12]: 32 µg/mL"
COc1cc(CCC(C)(C(=O)NO)S(C)(=O)=O)ccc1-c1ccccc1 (stereo not drawn) [Example 171],16 µg/mL,14.6 nM,4 µg/mL,32 µg/mL,≧64 mg/L,–
CC(CCc1ccc(-c2ccc3c(c2)CNC3)cc1)(C(=O)NO)S(C)(=O)=O (stereo not drawn) [Example 173],≧64 mg/L,2.68 nM,≧64 mg/L,16 µg/mL,≧64 mg/L,–
CC(CCc1ccc(-c2ccccc2F)cc1)(C(=O)NO)S(C)(=O)=O (stereo not drawn) [Example 50],8 µg/mL,0.731 nM,2 µg/mL,0.5 µg/mL,16 µg/mL,–
CC(CCc1ccc(-c2ccc(OCCCO)cc2)cc1)(C(=O)NO)S(C)(=O)=O (stereo not drawn) [Example 115],2 µg/mL,0.388 nM,0.5 µg/mL,2 µg/mL,≧64 mg/L,–
C[C@@](CCc1ccc(-c2ccc3c(c2)OCO3)cc1)(C(=O)NO)S(C)(=O)=O [Example 215],2 µg/mL,0.0842 nM,–,–,–,"EC-1 MIC ([2]; Escherichia coli EC-1): 0.5 µg/mL; PA-7 MIC [4, 11]: 0.5 µg/mL; AB-3167 MIC [5, 12]: 16 µg/mL"
CC(=O)Nc1ccc(-c2ccc(CCC(C)(C(=O)NO)S(C)(=O)=O)cc2F)cc1 (stereo not drawn) [Example 207],≧64 mg/L,7.09 nM,–,–,–,"EC-1 MIC ([2]; Escherichia coli EC-1): 32 µg/mL; PA-7 MIC [4, 11]: 16 µg/mL; AB-3167 MIC [5, 12]: ≧64 mg/L"
COc1cccc(-c2ccc(CC[C@](C)(C(=O)NO)S(C)(=O)=O)cc2)c1 [Example 170],≧64 mg/L,54 nM,≧64 mg/L,≧64 mg/L,16 µg/mL,–
"C[C@@](CCc1ccc(-c2ccc(O)cc2)cc1)(C(=O)NO)S(C)(=O)=O [Example 23, (2R)—N-hydroxy-4-(4′-hydroxybiphenyl-4-yl)-2-methyl-2-(methylsulfonyl)butanamide]",8 µg/mL,–,–,–,–,"IC50 [1, 13]: 0.18 nM; MIC ([2]; read-out: EC-1: (MIC)): 4 µg/mL; MIC [4, 14]: 2 µg/mL; MIC [5, 15]: ≥ 64 µg/mL"
"CC(CCc1ccc(OCc2ccc(OC(F)(F)F)cc2)cc1)(C(=O)NO)S(C)(=O)=O (stereo not drawn) [Example 288, N-hydroxy-2-methyl-2-(methylsulfonyl)-4-(4-{[4-(trifluoromethoxy)benzyl]oxy}phenyl)butanamide]",8 µg/mL,–,–,–,–,"IC50 [1, 6]: 1.53 nM; MIC ([2]; read-out: EC-1 MIC): 4 µg/mL; MIC ([4]; Table 3, read-out: PA-7 MIC): 8 µg/mL; MIC ([5]; Table 3, read-out: AB-3167 MIC): 4 µg/mL"
Cc1cc(CCC(C)(C(=O)NO)S(C)(=O)=O)ccc1-c1ccc(F)cc1 (stereo not drawn) [Example 160],8 µg/mL,2.54 nM,2 µg/mL,4 µg/mL,16 µg/mL,–
CC(C)Cc1ccc(-c2ccc(CCC(C)(C(=O)NO)S(C)(=O)=O)cc2)cc1 (stereo not drawn) [Example 63],4 µg/mL,0.356 nM,2 µg/mL,16 µg/mL,8 µg/mL,–
"Cc1ccc(Cc2noc(COc3ccc(CCC(C)(C(=O)NO)S(C)(=O)=O)cc3)n2)cc1 (stereo not drawn) [Example 283, N-hydroxy-2-methyl-4-(4-{[3-(4-methylbenzyl)-1,2,4-oxadiazol-5-yl]methoxy}phenyl)-2-(methylsulfonyl)butanamide]",≧64 mg/L,–,–,–,–,"IC50 [1, 6]: 6.32 nM; MIC ([2]; read-out: EC-1 MIC): 16 µg/mL; MIC ([4]; Table 3, read-out: PA-7 MIC): ≥ 64 µg/mL; MIC ([5]; Table 3, read-out: AB-3167 MIC): ≥ 64 µg/mL"
CC(CCc1ccc(-c2ccc3c(c2)OCO3)cc1)(C(=O)NO)S(C)(=O)=O (stereo not drawn) [Example 176],2 µg/mL,0.0303 nM,0.5 µg/mL,0.5 µg/mL,16 µg/mL,–
C[C@@](CCc1ccc(-c2ccc(C#N)cc2)cc1)(C(=O)NO)S(C)(=O)=O [Example 107],1 µg/mL,0.134 nM,0.25 µg/mL,0.25 µg/mL,16 µg/mL,–
"Cc1ccc(F)c(-c2noc(COc3ccc(CCC(C)(C(=O)NO)S(C)(=O)=O)cc3)n2)c1 (stereo not drawn) [Example 291, 4-(4-{[3-(2-fluoro-5-methylphenyl)-1,2,4-oxadiazol-5-yl]methoxy}phenyl)-N-hydroxy-2-methyl-2-(methylsulfonyl)butanamide]",≧64 mg/L,–,–,–,–,"IC50 [1, 6]: 9.27 nM; MIC ([2]; read-out: EC-1 MIC): 16 µg/mL; MIC ([4]; Table 3, read-out: PA-7 MIC): ≥ 64 µg/mL; MIC ([5]; Table 3, read-out: AB-3167 MIC): ≥ 64 µg/mL"
"CC(CCc1ccc(OCc2ccc(-n3cccn3)cc2)cc1)(C(=O)NO)S(C)(=O)=O (stereo not drawn) [Example 304, N-hydroxy-2-methyl-2-(methylsulfonyl)-4-(4-{[4-(1H-pyrazol-1-yl)benzyl]oxy}phenyl)butanamide]",16 µg/mL,–,–,–,–,"IC50 [1, 6]: 1.99 nM; MIC ([2]; read-out: EC-1 MIC): 4 µg/mL; MIC ([4]; Table 3, read-out: PA-7 MIC): 16 µg/mL; MIC ([5]; Table 3, read-out: AB-3167 MIC): 32 µg/mL"
CC(=O)c1ccc(-c2ccc(CC[C@](C)(C(=O)NO)S(C)(=O)=O)cc2)cc1 [Example 182],1 µg/mL,0.0674 nM,0.5 µg/mL,0.5 µg/mL,16 µg/mL,–
CC(CCc1ccc(-c2ccc(F)cc2)c(F)c1)(C(=O)NO)S(C)(=O)=O (stereo not drawn) [Example 167],4 µg/mL,0.235 nM,1 µg/mL,0.5 µg/mL,8 µg/mL,–
C[C@@](CCc1ccc(-c2ccc(C(=O)N3CCC[C@@H]3CO)cc2)cc1)(C(=O)NO)S(C)(=O)=O [Example 216],≧64 mg/L,4.02 nM,–,–,–,"EC-1 MIC ([2]; Escherichia coli EC-1): 32 µg/mL; PA-7 MIC [4, 11]: 32 µg/mL; AB-3167 MIC [5, 12]: ≧64 mg/L"
C[C@@](CCc1ccc(-c2ccc3c(c2)C(=O)NC3)cc1)(C(=O)NO)S(C)(=O)=O [Example 208],16 µg/mL,0.374 nM,–,–,–,"EC-1 MIC ([2]; Escherichia coli EC-1): 4 µg/mL; PA-7 MIC [4, 11]: 2 µg/mL; AB-3167 MIC [5, 12]: ≧64 mg/L"
